Laboratory results as given in the NIST ThermoML archive (doi:10.1016/j.jct.2016.03.038).

Experiment: mn = molality of the nth substance listed, in mol/kg
Conditions: Liquid, isochoric method

C [methane] + CCCCCC
Conditions	mass density [kg/m3]
273.1 K, 2850 kPa, m1 = 2.157	655
273.1 K, 3620 kPa, m1 = 2.812	648
273.1 K, 4700 kPa, m1 = 3.805	638
273.1 K, 5670 kPa, m1 = 4.686	628
273.1 K, 6920 kPa, m1 = 6.031	616
273.1 K, 7900 kPa, m1 = 7.195	604
273.1 K, 9190 kPa, m1 = 8.724	596
283.15 K, 2500 kPa, m1 = 1.717	650
283.15 K, 3570 kPa, m1 = 2.568	640
283.15 K, 4740 kPa, m1 = 3.533	632
283.15 K, 5840 kPa, m1 = 4.499	620
283.15 K, 7010 kPa, m1 = 5.615	610
283.15 K, 8560 kPa, m1 = 7.345	594
293.15 K, 2360 kPa, m1 = 1.513	643
293.15 K, 3340 kPa, m1 = 2.229	635
293.15 K, 4410 kPa, m1 = 3.042	627
293.15 K, 5620 kPa, m1 = 4.008	615
293.15 K, 6860 kPa, m1 = 5.098	604
293.15 K, 8400 kPa, m1 = 6.638	590
